Data on 6 molecules can be found in patent US6429208B1, “Methods and compositions for restoring impaired cellular immune function” (Regents of the University of California, priority 1992, dated 2002).

For one experiment, the system named is membrane PKC activity. Nature of the experiment: Membrane PKC activity in PBMC. In kind it is cell-based, human. On the procedure: The reagents were obtained as a kit from Gibco (Grand island, N.Y.) and the manufacturer's protocol was followed. After activation, cell membrane fractions were then obtained by ultracentrifugation (100,000 g for one hour at 4° C.) of sonicated cell lysates without detergent. Membrane fractions were then sonicated in the presence of 0.05% Triton X and the specific PKC activities were determined. Specific PKC activity was determined as the difference between phosphorylation of a PKC specific substrate with and without a specific PKC inhibitor present. The specific PKC substrate was a synthetic peptide from myelin basic protein with an acetylated N-terminal glutamine. The specific PKC inhibitor was a pseudo-substrate peptide which specifically binds to the pseudo-substrate region of the regulatory domain of PKC. The reaction mixture was spotted on cellulose paper, non-bound ^32P-ATP was removed by washing, and the paper discs were counted in a β counter after addition of scintillation fluid. The amounts of lysate over which the assay was linear were determined in initial experiments. All experiments were repeated 2-5 times.

The subject of another experiment is normal PBMC. Put plainly: PHA-induced proliferation of normal PBMC, 3H-thymidine uptake. The experiment is classed as cell-based, human. As to conditions: for ^3H-Thy. Incorp.: PHA alone 254.2 ± 9.0. The procedure: Peripheral blood mononuclear cells (PBMC) from healthy blood donors were isolated by Lymphoprep (Nyegaard and Co., Oslo, Norway) density gradient centrifugation. Cell cultures were prepared in Eppendorf tubes and contained 5-10×10^6 cells/ml for phosphotyrosine experiments and 2-5×10^6 cells/ml for the kinase experiments and the cAMP determinations described below. The concentration of PHA added per tube was 10 μg/ml of PHA-P (Wellcome, Beckenham, England). Phorbol 12 myristate-13 acetate (PMA) (P-8139, Sigma, St. Louis, Mo.) was dissolved in dimethylsulfoxide (DMSO) and used in optimal concentrations of 200 ng/ml. The total volume per tube was 1 ml.
(§1) Proliferative assays were performed as previously described (see, for example, Hofmann, B., et al., Cell Immunol (1989) 121:336-48. Briefly, one microcurie ^3H-thymidine was added to cultures 72 hours after stimulation, and after further 24 hours, all cultures were harvested on glass fiber filters with an automatic harvesting machine (Skatron, Lierbyen, Norway), and the incorporated radioactivity was measured in a liquid scintillation counter (Beckman LS 1800) after an addition of 1.5 ml scintillation fluid.
The concentration of Cholera toxoid was 10-0.2 μg/ml and 8-bromoadenosine 3′,5′ cyclic monophosphate (Br-cAMP) was 40-0.2 μg/ml. […] The PTK inhibitor Tyrphostin 25 (Bimol, Plymouth, Pa.) was used in a concentration of 1.0 μg/ml. Tyrphostin 25 has more than 30 fold higher affinity for PTK than for PKC and PKA. HIV components were added to final dilutions of 108-360 μg p24 antigen/mi.
Both Cholera toxoid or Br-cAMP impaired PHA-induced cell proliferation as measured by ^3H-thymidine uptake after 3 days of culture (Table 1). The 50% impairment of proliferation induced by HIV components is similar to the 50% impairment induced by 0.63 μg/ml of Cholera toxoid or […] of Br-cAMP. The experiment confirmed that cAMP impairs PHA-induced proliferation of T lymphocytes.

The test system of experiment [1] is PBMC from an HIV seropositive subject. Nature of the experiment: Proliferative response to PHA of PBMC from HIV seropositive subjects. The experiment is classed as cell-based, human. On the procedure: as §1
Another experiment has as its system PTK. The conditions noted are these: cited from earlier work.
Experiment [2] relates to PBMC from HIV seropositive subjects. Put plainly: Intracellular cAMP in PBMC from HIV seropositive subjects. In kind it is cell-based, human. The conditions noted are these: 10 ng/ml for 10 min; decreased from 5.3. The procedure:
The compound 2′,5′ dideoxyadenosine (ddAdo) inhibits adenylate cyclase, the enzyme responsible for the generation of cAMP, by competition for the “P”-binding site (Johnson, J Biochem (1990) 265:11595-11600). […] In one such experiment (FIG. 9A), the intracellular cAMP level decreased to normal levels within 4 hours and remained at this level when tested after 20 hours. The effect of ddAdo was compared with two other adenylate cyclase inhibitors which are naturally occurring adenosine phosphates. When used in equal concentrations, the three inhibitors gave similar reductions in intracellular CAMP levels. For example, when added in 10 ng/ml for 10 min, ddAdo decreased the CAMP levels from 5.3 pmol/10^6 PBMC to 3.6; 3′ AMP to 3.5; and 2′,3′deoxy-AMP reduced the level to 3.2 pmol/10^6 PBMC.
cAMP was determined using a commercial scintillation proximity RIA (Amersham, Arlington Heights, Ill.) following the manufacturer's protocol. PKA activity was determined using a kit from Gibco (Grand Island, N.Y.) and the manufacturer's protocol. For the cAMP assay, cells were lysed and sonicated in assay buffer (provided with the kits). Proliferative assays were performed as described above.
Further purification was achieved by reverse phase chromatography. 3 ml of above solution was applied on C18 Sep-Pak cartridge (Waters) equilibrated with water+0.1% TFA. The column was washed with H2O-TFA until absorbance at 280nm reached baseline. Bound material was eluted from the column by stepwise elution with H2O-acetonitrile-TFA mixtures. There were three peaks on elution curve at 20%, 40% and 70% acetonitrile. The effluent from the above step was rechromatographed again on C18 cartridge and yielded additional quantities of the three products. […] Fraction 2 was added in various PBS dilutions to lymphocytes from HIV seropositive subjects. cAMP was then measured on lysates of these cells after 1 hour.

The target of a further experiment is PKA (Homo sapiens, UniProt P17612). The conditions noted are these: cited from earlier work.
[3] abbreviates: cells not stimulated (control), without inhibitor 1.3 ± 0.2.
[4] abbreviates: cells stimulated by HIV, without inhibitor 3.0 ± 0.2.
Setting [5] is: cells stimulated by PHA, without inhibitor 4.2 ± 1.6.

In the case of `Nc1ncnc2c1nc(Br)n2[C@@H]1O[C@@H]2COP(=O)(O)O[C@H]2[C@H]1O` [Br-cAMP, 8-bromoadenosine 3′,5′ cyclic monophosphate], the values for the PKC membrane activity in the experiment on membrane PKC activity (setting [3]), in the experiment on membrane PKC activity (setting [4]) and in the experiment with membrane PKC activity (setting [5]) were 3.9 ± 1.7 nM of ^32P/minute/10^6 PBMC, 2.2 ± 1.5 nM of ^32P/minute/10^6 PBMC and 2.1 ± 1.6 nM of ^32P/minute/10^6 PBMC, respectively. The “Concentration inducing 50% impairment of PHA-induced proliferation” value in the experiment on normal PBMC (3 days of culture) came out at 200 µg/mL. In addition, the “Activity, percentage of activity of PHA control” value in the experiment on normal PBMC (PHA + 100 μg/ml) is on record as 66%; in the experiment with normal PBMC (PHA + 200 μg/ml) it was 38%; in the experiment with normal PBMC (PHA + 400 μg/ml), 16%. Also, the “^3H-Thy. Incorp.” value came to 168.7 ± 21.9 cpm ×10^−6 in the experiment with normal PBMC (PHA + 100 μg/ml), 96.3 ± 14.4 cpm ×10^−6 in the experiment on normal PBMC (PHA + 200 μg/ml) and 41.6 ± 2.1 cpm ×10^−6 in the experiment on normal PBMC (PHA + 400 μg/ml).
As for `N#CC(C#N)=Cc1ccc(O)c(O)c1` [T-23], the “Proliferative response to PHA” value in experiment [1] is “enhance proliferation”.
On to `N#CC(C#N)=Cc1cc(O)c(O)c(O)c1` [Tyrophostin-25], for which, in the experiment on PTK, the “Fold higher affinity for PTK than for PKC and PKA” value was “more than 30 fold”. Further, the PKC membrane activity in the experiment on membrane PKC activity (setting [3]) was 2.0 ± 0.9 nM of ^32P/minute/10^6 PBMC; in the experiment with membrane PKC activity (setting [4]), 4.6 ± 0.0 nM of ^32P/minute/10^6 PBMC; with membrane PKC activity (setting [5]) it was 7.7 ± 7.7 nM of ^32P/minute/10^6 PBMC.
2′,3′deoxy-AMP displayed a cAMP levels in experiment [2] of 3.2 pmol/10^6 PBMC.
`Nc1ncnc2c1ncn2[C@@H]1O[C@H](CO)[C@@H](OP(=O)(O)O)[C@H]1O` [3′ AMP]: the cAMP levels in experiment [2] is 3.5 pmol/10^6 PBMC.
In the case of `O=S(=O)(NCCNC/C=C/c1ccc(Br)cc1)c1cccc2cnccc12` [H-89], the PKC membrane activity in the experiment on membrane PKC activity (setting [3]) is 6.0 ± 1.9 nM of ^32P/minute/10^6 PBMC; in the experiment with membrane PKC activity (setting [4]) it was 12.9 ± 4.7 nM of ^32P/minute/10^6 PBMC; in the experiment with membrane PKC activity (setting [5]), 9.4 ± 5.5 nM of ^32P/minute/10^6 PBMC. The “Fold higher affinity for PKA than for PKC” value on PKA is 660 fold. For the same molecule, in experiment [1], the “Proliferative response to PHA” value was “enhance proliferation”.
